Results as given in article PMC4126177, “Molecular docking simulation studies on potent butyrylcholinesterase inhibitors obtained from microbial transformation of dihydrotestosterone” (Chemistry Central Journal, 2013).
Read-outs that look alike come from different tables or passages of the source.

Target: T1, Equine serum BChE (butyrylcholinesterase) (Equus caballus, UniProt P81908)
T1 construct: commercial native enzyme from horse serum (Sigma); docking used human BChE 1P0P, not the assayed protein
Test: DTNB (Ellman-type) spectrophotometric assay, […] nm
Assay type: biochemical

T1 sequence (P81908 whole entry): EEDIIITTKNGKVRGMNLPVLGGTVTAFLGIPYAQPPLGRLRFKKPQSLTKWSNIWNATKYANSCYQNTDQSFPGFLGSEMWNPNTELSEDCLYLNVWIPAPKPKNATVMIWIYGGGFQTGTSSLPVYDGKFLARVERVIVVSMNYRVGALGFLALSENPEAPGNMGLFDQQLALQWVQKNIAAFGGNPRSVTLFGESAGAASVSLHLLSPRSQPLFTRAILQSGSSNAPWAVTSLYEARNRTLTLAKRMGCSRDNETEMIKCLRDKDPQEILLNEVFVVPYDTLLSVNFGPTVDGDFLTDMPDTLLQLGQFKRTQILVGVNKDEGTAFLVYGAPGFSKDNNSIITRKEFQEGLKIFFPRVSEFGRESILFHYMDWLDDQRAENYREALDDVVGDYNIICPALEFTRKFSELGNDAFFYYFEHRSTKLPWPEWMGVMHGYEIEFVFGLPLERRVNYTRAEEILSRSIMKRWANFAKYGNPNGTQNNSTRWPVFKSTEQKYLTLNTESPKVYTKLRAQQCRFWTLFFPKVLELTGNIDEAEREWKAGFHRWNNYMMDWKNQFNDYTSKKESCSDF

C[C@]12C=CC(=O)C=C1CC[C@@H]1[C@@H]2CC[C@]2(C)C(=O)CC[C@@H]12 [compound 5, Androst-1,4-dien-3,17-dione]
IC50: 11.8 ± 0.5 µM

C[C@]12CCC(=O)C=C1CC[C@@H]1[C@@H]2[C@H](O)C[C@]2(C)C(=O)CC[C@@H]12 [compound 6, 11α-Hydroxyandrost-4-en-3,17-dione]
IC50 (read-out: Mean ± SEM^ a [ μ M]): 20.5 ± 0.2 µM
